From ChEMBL document CHEMBL4004878, “Design, synthesis and structure-bactericidal activity relationships of novel 9-oxime ketolides and reductive epimers of acylides” (2017)
Converted amounts (≈) assume the structure as drawn.

How the values were obtained:
Assay type in all cases: functional
Streptococcus pneumoniae [1] = assay: Ratio of MBC to MIC for […] Streptococcus pneumoniae ATCC 49619
Streptococcus pyogenes [2] = assay: Bactericidal activity against Streptococcus pyogenes 12-207 expressing mef incubated for 20 to 24 hrs followed by sub-culturing for 24 hrs in absence of compound
Streptococcus pneumoniae [3] = assay: Ratio of MBC to MIC for penicillin-susceptible Streptococcus pneumoniae PU09
Streptococcus pyogenes [4] = assay: Bacteriostatic activity against Streptococcus pyogenes 01-968 expressing inducible ermA after 20 to 24 hrs by two-fold microbroth dilution method
Staphylococcus aureus [5] = assay: Bactericidal activity against methicillin-resistant Staphylococcus aureus PU32 expressing inducible ermA incubated for 20 hrs followed by sub-culturing for 24 hrs in absence of compound
Streptococcus pyogenes [6] = assay: Ratio of MBC to MIC for Streptococcus pyogenes 12-207 expressing mef
Staphylococcus aureus [7] = assay: Bacteriostatic activity against methicillin-resistant Staphylococcus aureus PU32 expressing inducible ermA after 20 hrs by two-fold microbroth dilution method; details: PU32, 20 h
Streptococcus pneumoniae [8] = assay: Bactericidal activity against penicillin-susceptible Streptococcus pneumoniae PU09 incubated for 20 to 24 hrs followed by sub-culturing for 24 hrs in absence of compound
Haemophilus influenzae [9] = assay: Ratio of MBC to MIC for azithromycin susceptible/ampicillin-resistant Haemophilus influenzae 11P307
Staphylococcus aureus [10] = assay: Ratio of MBC to MIC for methicillin-resistant Staphylococcus aureus PU20 expressing constitutive ermC
Streptococcus pneumoniae [11] = assay: Bacteriostatic activity against penicillin-susceptible Streptococcus pneumoniae PU09 after 20 to 24 hrs by two-fold microbroth dilution method
Streptococcus pneumoniae [12] = assay: Bactericidal activity against […] Streptococcus pneumoniae ATCC 49619 incubated for 20 to 24 hrs followed by sub-culturing for 24 hrs in absence of compound
Haemophilus influenzae [13] = assay: Bacteriostatic activity against azithromycin-susceptible/ampicillin-resistant Haemophilus influenzae 11P307 after 20 to 24 hrs by two-fold microbroth dilution method
Staphylococcus aureus [14] = assay: Bactericidal activity against methicillin-resistant Staphylococcus aureus PU20 expressing constitutive ermC incubated for 20 hrs followed by sub-culturing for 24 hrs in absence of compound
Streptococcus pneumoniae [15] = assay: Bacteriostatic activity against […] Streptococcus pneumoniae ATCC 49619 after 20 to 24 hrs by two-fold microbroth dilution method
Moraxella catarrhalis [16] = assay: Bacteriostatic activity against erythromycin-susceptible Moraxella catarrhalis 11B366 after 20 hrs by two-fold microbroth dilution method; details: 11B366, 20 h
Staphylococcus aureus [17] = assay: Ratio of MBC to MIC against methicillin-resistant Staphylococcus aureus PU32 expressing inducible ermA
Streptococcus pyogenes [18] = assay: Bacteriostatic activity against Streptococcus pyogenes 12-207 expressing mef after 20 to 24 hrs by two-fold microbroth dilution method
Staphylococcus aureus [19] = assay: Bacteriostatic activity against methicillin-resistant Staphylococcus aureus PU20 expressing constitutive ermC after 20 hrs by two-fold microbroth dilution method; details: PU20, 20 h
Moraxella catarrhalis [20] = assay: Ratio of MBC to MIC against erythromycin-susceptible Moraxella catarrhalis 11B366
Streptococcus pyogenes [21] = assay: Bactericidal activity against Streptococcus pyogenes 01-968 expressing inducible ermA incubated for 20 to 24 hrs followed by sub-culturing for 24 hrs in absence of compound
Haemophilus influenzae [22] = assay: Bactericidal activity against azithromycin susceptible/ampicillin-resistant Haemophilus influenzae 11P307 incubated for 20 to 24 hrs followed by sub-culturing for 24 hrs in absence of compound
Moraxella catarrhalis [23] = assay: Bactericidal activity against erythromycin-susceptible Moraxella catarrhalis 11B366 incubated for 20 hrs followed by sub-culturing for 24 hrs in absence of compound
Streptococcus pyogenes [24] = assay: Ratio of MBC to MIC for Streptococcus pyogenes 01-968 expressing inducible ermA
Moraxella catarrhalis [25] = assay: Bacteriostatic activity against erythromycin-susceptible Moraxella catarrhalis 13L332 after 20 hrs by two-fold microbroth dilution method; details: 13L332, 20 h
Moraxella catarrhalis [26] = assay: Bactericidal activity against erythromycin-susceptible Moraxella catarrhalis 13L332 incubated for 20 hrs followed by sub-culturing for 24 hrs in absence of compound
Moraxella catarrhalis [27] = assay: Ratio of MBC to MIC against erythromycin-susceptible Moraxella catarrhalis 13L332

In the case of `CC[C@H]1OC(=O)[C@H](C)C(=O)[C@H](C)[C@@H](O[C@@H]2O[C@H](C)C[C@H](N(C)C)[C@H]2O)[C@](C)(OC)C[C@@H](C)/C(=N\OCC#Cc2cncc3ccccc23)[C@H](C)[C@H]2OC(=O)O[C@@]21C`, the Ratio (Streptococcus pneumoniae [1]) is reported as “>=4”, the MBC (Streptococcus pyogenes [2]) is reported as over 0.125 µg/mL and the Ratio (Streptococcus pneumoniae [3]) is reported as 2. It also gave an MIC (Streptococcus pyogenes [4]) of 0.25 µg/mL (≈ 0.315 µM), an MBC (Staphylococcus aureus [5]) of over 8 µg/mL and a Ratio (Streptococcus pyogenes [6]) of over 8. It also gave an MIC (Staphylococcus aureus [7]) of 1 µg/mL (≈ 1.26 µM), an MBC (Streptococcus pneumoniae [8]) of 0.5 µg/mL (≈ 0.63 µM) and a Ratio (Haemophilus influenzae [9]) of over 8. The Ratio (Staphylococcus aureus [10]) was 2, the MIC (Streptococcus pneumoniae [11]) was 0.25 µg/mL (≈ 0.315 µM) and the MBC (Streptococcus pneumoniae [12]) was 0.031 µg/mL (≈ 0.039 µM). It also gave an MIC (Haemophilus influenzae [13]) of 16 µg/mL (≈ 20.2 µM), an MBC (Staphylococcus aureus [14]) of 64 µg/mL (≈ 80.6 µM) and an MIC (Streptococcus pneumoniae [15]) of at most 0.008 µg/mL. For the same molecule, the MIC (Moraxella catarrhalis [16]) was 4 µg/mL (≈ 5.04 µM), the Ratio (Staphylococcus aureus [17]) was over 8 and the MIC (Streptococcus pyogenes [18]) was 0.016 µg/mL (≈ 0.0202 µM). For the same molecule, the MIC (Staphylococcus aureus [19]) was 32 µg/mL (≈ 40.3 µM), the Ratio (Moraxella catarrhalis [20]) was 1 and the MBC (Streptococcus pyogenes [21]) was over 2 µg/mL. For the same molecule, the MBC (Haemophilus influenzae [22]) was over 128 µg/mL, the MBC (Moraxella catarrhalis [23]) was 4 µg/mL (≈ 5.04 µM) and the Ratio (Streptococcus pyogenes [24]) was over 8.

With `CC[C@H]1OC(=O)[C@H](C)[C@H](OC(=O)c2ccccn2)[C@H](C)[C@@H](O[C@@H]2O[C@H](C)C[C@H](N(C)C)[C@H]2O)[C@](C)(OC)C[C@@H](C)/C(=N\OC)[C@H](C)[C@H]2OC(=O)O[C@@]21C` the MIC (Streptococcus pyogenes [4]) was over 64 µg/mL, the MBC (Staphylococcus aureus [5]) was over 256 µg/mL and the MIC (Staphylococcus aureus [7]) was over 256 µg/mL. The MBC (Streptococcus pneumoniae [8]) was over 64 µg/mL, the MIC (Streptococcus pneumoniae [11]) was 64 µg/mL (≈ 85.3 µM) and the MBC (Streptococcus pneumoniae [12]) was over 64 µg/mL. For the same molecule, the MIC (Moraxella catarrhalis [25]) was 32 µg/mL (≈ 42.7 µM), the MBC (Staphylococcus aureus [14]) was over 256 µg/mL and the MIC (Streptococcus pneumoniae [15]) was 64 µg/mL (≈ 85.3 µM). For the same molecule, the MIC (Staphylococcus aureus [19]) was over 256 µg/mL, the MBC (Streptococcus pyogenes [21]) was over 64 µg/mL and the MBC (Moraxella catarrhalis [26]) was over 64 µg/mL.

For `CC[C@H]1OC(=O)[C@@](C)(F)[C@H](OC(=O)Cc2ccccn2)[C@H](C)[C@@H](O[C@@H]2O[C@H](C)C[C@H](N(C)C)[C@H]2O)[C@](C)(OC)C[C@@H](C)/C(=N\OC)[C@H](C)[C@H]2OC(=O)O[C@@]21C`, the Ratio (Streptococcus pneumoniae [1]) was 1, the MIC (Streptococcus pyogenes [4]) was 64 µg/mL (≈ 81.9 µM) and the MBC (Staphylococcus aureus [5]) was over 256 µg/mL. The MIC (Staphylococcus aureus [7]) was over 256 µg/mL, the MBC (Streptococcus pneumoniae [8]) was over 64 µg/mL and the Ratio (Moraxella catarrhalis [27]) was 2. The MIC (Streptococcus pneumoniae [11]) was 32 µg/mL (≈ 40.9 µM), the MBC (Streptococcus pneumoniae [12]) was 64 µg/mL (≈ 81.9 µM) and the MIC (Moraxella catarrhalis [25]) was 32 µg/mL (≈ 40.9 µM). For the same molecule, the MBC (Staphylococcus aureus [14]) was over 256 µg/mL, the MIC (Streptococcus pneumoniae [15]) was 64 µg/mL (≈ 81.9 µM) and the MIC (Staphylococcus aureus [19]) was over 256 µg/mL. The MBC (Streptococcus pyogenes [21]) was over 64 µg/mL and the MBC (Moraxella catarrhalis [26]) was 64 µg/mL (≈ 81.9 µM).

Work on `C=CCN(C)[C@H]1C[C@@H](C)O[C@@H](O[C@@H]2[C@@H](C)C(=O)[C@@H](C)C(=O)O[C@H](CC)[C@@]3(C)OC(=O)O[C@@H]3[C@@H](C)/C(=N/OC/C=C/c3cnc4ccccc4c3)[C@H](C)C[C@@]2(C)OC)[C@@H]1O` yielded a Ratio (Streptococcus pneumoniae [1]) of 4, an MBC (Streptococcus pyogenes [2]) of 1 µg/mL (≈ 1.22 µM) and a Ratio (Streptococcus pneumoniae [3]) of 1. For the same molecule, the MIC (Streptococcus pyogenes [4]) was 0.5 µg/mL (≈ 0.608 µM), the MBC (Staphylococcus aureus [5]) was over 16 µg/mL and the Ratio (Streptococcus pyogenes [6]) was 4. The MIC (Staphylococcus aureus [7]) was 2 µg/mL (≈ 2.43 µM), the MBC (Streptococcus pneumoniae [8]) was 0.5 µg/mL (≈ 0.608 µM) and the Ratio (Haemophilus influenzae [9]) was over 8. It also gave an MIC (Streptococcus pneumoniae [11]) of 0.5 µg/mL (≈ 0.608 µM), an MBC (Streptococcus pneumoniae [12]) of 0.25 µg/mL (≈ 0.304 µM) and an MIC (Haemophilus influenzae [13]) of 32 µg/mL (≈ 38.9 µM). The MIC (Streptococcus pneumoniae [15]) was 0.062 µg/mL (≈ 0.0754 µM), the MIC (Moraxella catarrhalis [16]) was 8 µg/mL (≈ 9.73 µM) and the Ratio (Staphylococcus aureus [17]) was over 8. The MIC (Streptococcus pyogenes [18]) was 0.25 µg/mL (≈ 0.304 µM), the MIC (Staphylococcus aureus [19]) was over 256 µg/mL and the Ratio (Moraxella catarrhalis [20]) was 2. The MBC (Streptococcus pyogenes [21]) was 4 µg/mL (≈ 4.87 µM), the MBC (Haemophilus influenzae [22]) was over 256 µg/mL and the MBC (Moraxella catarrhalis [23]) was 16 µg/mL (≈ 19.5 µM). The Ratio (Streptococcus pyogenes [24]) was 8.

For `CC[C@H]1OC(=O)[C@@](C)(F)C(=O)[C@H](C)[C@@H](O[C@@H]2O[C@H](C)C[C@H](N(C)C)[C@H]2O)[C@](C)(OC)C[C@@H](C)/C(=N\OC/C=C/c2ccc3ncccc3c2)[C@H](C)[C@H]2OC(=O)O[C@@]21C`, the Ratio (Streptococcus pneumoniae [1]) was “>=2”, the MBC (Streptococcus pyogenes [2]) was over 0.5 µg/mL and the Ratio (Streptococcus pneumoniae [3]) was 2. The MIC (Streptococcus pyogenes [4]) was 0.25 µg/mL (≈ 0.307 µM), the MBC (Staphylococcus aureus [5]) was over 8 µg/mL and the Ratio (Streptococcus pyogenes [6]) was over 8. For the same molecule, the MIC (Staphylococcus aureus [7]) was 1 µg/mL (≈ 1.23 µM), the MBC (Streptococcus pneumoniae [8]) was 1 µg/mL (≈ 1.23 µM) and the Ratio (Haemophilus influenzae [9]) was over 8. It also gave a Ratio (Staphylococcus aureus [10]) of 2, an MIC (Streptococcus pneumoniae [11]) of 0.5 µg/mL (≈ 0.614 µM) and an MBC (Streptococcus pneumoniae [12]) of 0.016 µg/mL (≈ 0.0197 µM). It also gave an MIC (Haemophilus influenzae [13]) of 8 µg/mL (≈ 9.83 µM), an MBC (Staphylococcus aureus [14]) of 64 µg/mL (≈ 78.6 µM) and an MIC (Streptococcus pneumoniae [15]) of at most 0.008 µg/mL. It also gave an MIC (Moraxella catarrhalis [16]) of 2 µg/mL (≈ 2.46 µM), a Ratio (Staphylococcus aureus [17]) of over 8 and an MIC (Streptococcus pyogenes [18]) of 0.062 µg/mL (≈ 0.0762 µM). It also gave an MIC (Staphylococcus aureus [19]) of 32 µg/mL (≈ 39.3 µM), a Ratio (Moraxella catarrhalis [20]) of 1 and an MBC (Streptococcus pyogenes [21]) of 1 µg/mL (≈ 1.23 µM). For the same molecule, the MBC (Haemophilus influenzae [22]) was over 64 µg/mL, the MBC (Moraxella catarrhalis [23]) was 2 µg/mL (≈ 2.46 µM) and the Ratio (Streptococcus pyogenes [24]) was 4.
